Results as given in patent publication US20160113895A1, “Novel Use of Adapalene in Treating Esophageal Cancer and Gastrointestinal Stromal Tumor” (Biodelight Biotech Inc., priority 2013, published 2016).

Experiments:
A549 implanted tumors = assay: Subcutaneous A549 xenograft model, groups 1a/1b, i.p.; assay type: in vivo, BALB/c nude mice; details: 40 mg/kg i.p. once daily, after treatment days 48-52
Protocol: All experiments were performed using either 5-6 weeks old female BALB/c nude mice (approximate weight: 16-20 g) (A549) or female SCID mice (approximate weight: 16-20 g) (A549 and HCC827). […] Animal behaviour was monitored daily.
At necropsy, animals were killed by cervical dislocation. Primary tumor weights and volumes were determined.
The treatment for groups 1a and 1b (A549 model) animals with drug nsl-8 was started on day 48 and terminated on day 69. The animals were not consecutively treated with nsl-8 during the entire treatment period of 48-68 days. Instead, there was an interruption between treatment days 48-52 and 62-66 (FIG. 4) due to an apparent weight loss observed in the treated animals, an ethical reason which caused the treatment to be suspended. […] However, the animals were able to recover from such a weight loss after several days of cessation of treatment (FIG. 5). After weight loss of treated animals was recovered, a second treatment cycle from days 62-66 was resumed (FIG. 5). This second treatment cycle caused weight loss again (FIG. 5). However, the study groups 1a and 1b were both terminated on day 69 due to the presence of tumor ulceration in some animals. Note that weight loss in animals treated with vehicle was also observed in the final stage of treatment (FIG. 5). We speculated that such a loss might be caused by the presence of 10% DMSO in the prepared vehicle. […]

HCC827 = assay: 2D cell proliferation assay (Alamar Blue), HCC827; assay type: cell-based, human; details: Homo sapiens, HCC827, 72 h
Protocol: There were eight concentrations used for each drug for determining its IC50. […] Actinomycin D was a chemotherapeutic drug simply used as a quality control for all the experiments.
In the 2D cell proliferation assay, cells were cultured in DMEM containing 10% FCS and Penicillin/Streptomycin. For the assays, cells were seeded in 150 μL medium on a 96-well cell culture plate and incubated at 37° C. overnight before the compounds were added. […] A day after cell seeding, 10 μL of prediluted compounds was added to the cells (1:16 dilution). Treatment of cells with 0.1% DMSO or 1% DMSO (for the two top concentrations of nsl-8) and 1.0E-05 M Staurosporine was served as high control (100% viability) and low control (0% viability), respectively. Measurement of the impact of compounds on cell viability was performed as follows: 5000 cells (A549 and HCC827) or 2500 cells (H1299 and H460) were seeded in the inner wells of 96-well-plates in 150 μL complete medium. Next day, compounds were added to the medium to reach the final concentration and then incubated at 37° C. in 5% or 10% CO2 depending on the medium for 72 h.
(§1) Raw data were converted into percent cell viability relative to high control (solvent 0.1% DMSO or 1% DMSO for the two top concentrations of drug nsl-8) and low control (1.0E-05 M Staurosporine), which were set to 100% and 0%, respectively.

H1299 = assay: 2D cell proliferation assay (Alamar Blue), H1299; assay type: cell-based, human; details: Homo sapiens, NCI-H1299; 2D, H1299, 72 h; read-out: IC50
Description: Nsl-8 was subjected to 2D cell proliferation assays using four NSCLC cell lines (A549 (human adenocarcinomic alveolar basal epithelial cells with k-ras gene mutation), H1299 (human non-small cell lung carcinoma cell line with p53 mutation), H460 (human non-small cell lung carcinoma cell line with k-ras gene mutation), and HCC827 (human NSCLC cells with EGFR mutation of deletion from E746 to A750)) and the results were presented in Table 2. There were eight concentrations used for each drug for determining its IC50. […]. Actinomycin D was a chemotherapeutic drug simply used as a quality control for all the experiments.
In the 2D cell proliferation assay, cells were cultured in DMEM containing 10% FCS and Penicillin/Streptomycin. For the assays, cells were seeded in 150 μL medium on a 96-well cell culture plate and incubated at 37° C. overnight before the compounds were added. Compounds were prepared as predilution which was 16 fold concentrated to the final assay concentration. A day after cell seeding, 10 μL of prediluted compounds was added to the cells (1:16 dilution). Treatment of cells with 0.1% DMSO or 1% DMSO (for the two top concentrations of nsl-8) and 1.0E-05 M Staurosporine was served as high control (100% viability) and low control (0% viability), respectively. Measurement of the impact of compounds on cell viability was performed as follows: 5000 cells (A549 and HCC827) or 2500 cells (H1299 and H460) were seeded in the inner wells of 96-well-plates in 150 μL complete medium. Next day, compounds were added to the medium to reach the final concentration and then incubated at 37° C. in 5% or 10% CO2 depending on the medium for 72 h. Subsequently 10 μL Alamar Blue reagent was added and fluorescence at 590 nm was measured after 5 h incubation at 37° C. in 5% CO2 using a fluorometer.
as §1

For `COc1ccc(-c2ccc3cc(C(=O)O)ccc3c2)cc1C12CC3CC(CC(C3)C1)C2` [nsl-8, 6-[3-(1-adamantyl)-4-methoxyphenyl]-2-naphthalenecarboxylic acid], the “weight loss in animals” value (A549 implanted tumors) was 16%, the IC50 (HCC827) was 11 µM and the IC50 (H1299) was 6.5 µM.
